Measured values: US20250332157A1, “SOLID COMPOSITION OF GLP-1 RECEPTOR AGONIST” (Hangzhou Zhongmeihuadong Pharmaceutical Co., Ltd., priority 2021, published 2025)
Values joined by “and” are separate entries in the source; they are usually repeats but may differ in a detail not shown here. Equal entries are not always repeated. Structures can show the parent of a compound that is named as a salt.

Columns and labels:
[1] = Forced degradation studies No. 2 of OAD2 2HCl in solution (water, HCl, NaOH, H2O2, UV light), HPLC; format: physicochemical
Procedure: A stock solution was prepared by dissolving 12.90 mg of OAD2 2 HCl in acetonitrile:water (70:30) to a final volume of 25 mL ([…]). For test groups 1 and 2, the test solution was prepared by mixing 2 mL of the stock solution and 2 mL of water. For test groups 3 and 4, the test solution was prepared by mixing 2 mL of the stock solution and 2 mL of 0.1 N HCl solution. For test groups 5 and 6, the test solution was prepared by mixing 2 mL of the stock solution and 2 mL of 0.1 N NaOH solution. Test groups 1, 3, and 5 (at room temperature) were shielded from light by wrapping with aluminum foil.
A stock solution was prepared by dissolving 5.37 mg of OAD2 2HCl in acetonitrile:water (40:60) to a final volume of 10 mL ([…]). For test group 7, the test solution was prepared by mixing 2 mL of the stock solution and 2 mL of 3% aqueous H2O2. For test group 8, the test solution was prepared by dissolving 5.58 mg to 5.64 mg of OAD2 2HCl in acetonitrile:water (40:60) to a final volume of 25 mL.
The samples in each test group were stored either at room temperature or at 60° C. and observed after the periods indicated in the Table below.
A validated, reverse phase liquid chromatography gradient method was applied to determine assay (content of the active ingredient). The column used was Supelco Ascentis Express RP-Amide, 150×3.0 mm, 2.7μ or equivalent column. Mobile phase A comprises 0.05% TFA in water (v/v). Mobile phase B comprises 0.05% TFA in acetonitrile:methanol (1:2) (v/v). The sample was run using a step gradient from time zero (50% mobile phase A) to 38 minutes (99% mobile phase B). The diluent used to dissolve the standard and sample was a 60:40 mixture of acetonitrile and water. Chromatographic peaks were detected using UV detector at 280 nm. Assay value was obtained by comparing peak responses, expressed as the peak area of a sample formulation of known concentration and the peak area obtained from a standard formulation of known concentration.
The impurities were quantitated using the assay procedure described above. […]

[2] = Forced degradation experiment of active ingredient (acid, alkali, oxidation, high temperature, light, high humidity), HPLC; format: physicochemical; set-up: Impurity B / Impurity E / Impurity F / Impurity G / Impurity I / Largest unknown impurity: unit not given here
Procedure: Preparation of solutions: • (1) destructive test article solution: 25 mg of OAD2 or a pharmaceutically acceptable salt thereof was placed into a 50 ml measuring flask. Diluent was added to dissolve it and the mixture was diluted to the scale mark, shaken well and used as a test article solution. • (2) test article solution destructed by acid: 25.35 mg of OAD2 or a pharmaceutically acceptable salt thereof was placed into a 50 ml measuring flask. 2 ml of 1 mol/L hydrochloric acid was added, and the mixture was mixed, stood at room temperature for 24 h, adjusted pH to neutral with 1 mol/L sodium hydroxide solution. Diluent was added to dilute the mixture to the scale mark. The mixture was shaken well, and used as the test article solution destructed by acid. • (3) test article solution destructed by alkali: 26.64 mg of OAD2 or a pharmaceutically acceptable salt thereof was placed into a 50 ml measuring flask. 2 ml of 1 mol/L sodium hydroxide solution was added, and the mixture was mixed, stood at room temperature for 24h, adjusted pH to neutral with 1 mol/L hydrochloric acid solution. Diluent was added to dilute the mixture to scale mark. The mixture was shaken well, and used as test article solution destructed by alkali. • (4) acid-base blank: 2 ml of 1 mol/L sodium hydroxide solution was placed into a 50 ml measuring flask. The solution was neutralized with 1 mol/L hydrochloric acid solution, then diluted to the scale mark with a diluent, and shaken well to serve as the acid-base destruction blank solution. • (5) test article solution destructed by oxidation: 28.10 mg of OAD2 or a pharmaceutically acceptable salt thereof was placed into a 50 ml measuring flask. 2 ml of 15% hydrogen peroxide was added, stood at room temperature for 9 h. The mixture was diluted to the scale mark with a diluent. […] It was dissolved and diluted to the scale mark with a diluent, shaken well, and used as the test article solution destructed by high temperature. • (8) test article solution destructed by light exposure: 25.12 mg of OAD2 or pharmaceutically acceptable salt thereof was accurately weighted, placed into a 50 ml measuring flask, stood under irradiation of light 4500 Lx+−500 Lx for 6 days. It was dissolved and diluted to the scale mark with a diluent, shaken well, and used as the test article solution destructed by light exposure. • (9) test article solution destructed by high-humidity destruction: 25.71 mg of OAD2 or a pharmaceutically acceptable salt thereof was placed into a 50 ml measuring flask, then the measuring flask was placed into a drier with KNO3 saturated solution at the bottom (humidity was 92.5%), stood for 5 days. It was dissolved and diluted to the scale mark with a diluent, shaken well, and used as the test article solution destructed by high-humidity destruction. • (10) blank solution that is not destructed, not destructed by high-temperature, not destructed by high-humidity and not destructed by light exposure: a diluent.
The measuring method: 2 μl of each of the above solutions (1)-(10) was injected into a liquid chromatograph, and the chromatograms were recorded. Among them, the results of the forced degradation experiment are shown in Table 13.1, and the results of the changes of various impurity components after the forced degradation are shown in Table 13.2. […]

[3] = test group 7: 1.5% solution of H2O2, RT, after 90 minutes

In the case of `CC[C@@H](c1ccccc1)N1Cc2cc3c(cc2C[C@H]1C(=O)N[C@@H](Cc1ccc(-c2ccnc(C)c2C)cc1)C(=O)O)OC[C@H](c1ccc(OCc2ccc(Cl)c(Cl)c2)cc1)O3` [OAD2 dihydrochloride, (S)-2-(3S,8S)-3-(4-(3,4-dichlorobenzyloxy)phenyl-7-((S)-1-phenylpropyl)-2,3,6,7,8,9-hexahydro-[1,4]-dioxino[2,3-g]isoquinolin-8-formylamino)-3-(4-(2,3-dimethylpyridin-4-yl)phenyl)propanoic acid dihydrochloride], the “growth of impurities by HPLC” value [1, 3] is reported as “significant increase in impurities”, the “loss of active ingredient” value [1, 3] is reported as 10% and the “growth of impurities or loss of active ingredient by HPLC” value ([1]; test groups 1-6 and 8: water, 0.05N HCl, 0.05N NaOH at RT or 60° C., 1 and 2 days, UV light (365 nm) RT 24 hours) is reported as “no substantial growth in any impurities or loss of active ingredient”.

In the case of `CC[C@@H](c1ccccc1)N1Cc2cc3c(cc2C[C@H]1C(=O)N[C@@H](Cc1ccc(-c2ccnc(C)c2C)cc1)C(=O)O)OC[C@H](c1ccc(OCc2ccc(Cl)c(Cl)c2)cc1)O3` [OAD2, (S)-2-(3S,8S)-3-(4-(3,4-dichlorobenzyloxy)phenyl-7-((S)-1-phenylpropyl)-2,3,6,7,8,9-hexahydro-[1,4]-dioxino[2,3-g]isoquinolin-8-ylformylamino)-3-(4-(2,3-dimethylpyridin-4-yl)phenyl)propionic acid], the Impurities C + D ([2]; Acid destruction) is reported as 0.03%, the “Impurity A” value ([2]; Acid destruction) is reported as 0.13 and the “Impurity B” value ([2]; Acid destruction) is reported as “Undetected”. The “Impurity E” value ([2]; Acid destruction) was “Undetected”, the “Impurity F” value ([2]; Acid destruction) was 0.34 and the “Impurity G” value ([2]; Acid destruction) was 0.05. For the same molecule, the “Impurity H” value ([2]; Acid destruction) was “Undetected”, the “Impurity I” value ([2]; Acid destruction) was “Undetected” and the Largest unknown impurity ([2]; Acid destruction) was 0.07. The “Number of impurities (≥0.05%)” value ([2]; Acid destruction) was 4, the “Purity of main peak” value ([2]; Acid destruction) was 99.4% and the Total Impurities ([2]; Acid destruction) was 0.65%. For the same molecule, the Impurities C + D ([2]; Alkali destruction) was 0.05%, the “Impurity A” value ([2]; Alkali destruction) was 0.13 and the “Impurity B” value ([2]; Alkali destruction) was 0.02. For the same molecule, the “Impurity E” value ([2]; Alkali destruction) was “Undetected”, the “Impurity F” value ([2]; Alkali destruction) was 0.36 and the “Impurity G” value ([2]; Alkali destruction) was 0.07. The “Impurity H” value ([2]; Alkali destruction) was “Undetected”, the “Impurity I” value ([2]; Alkali destruction) was “Undetected” and the Largest unknown impurity ([2]; Alkali destruction) was 0.07. For the same molecule, the “Number of impurities (≥0.05%)” value ([2]; Alkali destruction) was 4, the “Purity of main peak” value ([2]; Alkali destruction) was 99.3% and the Total Impurities ([2]; Alkali destruction) was 0.73%. For the same molecule, the Impurities C + D ([2]; High humidity destruction) was 0.04%, the “Impurity A” value ([2]; High humidity destruction) was 0.12 and the “Impurity B” value ([2]; High humidity destruction) was “Undetected”. For the same molecule, the “Impurity E” value ([2]; High humidity destruction) was 0.01, the “Impurity F” value ([2]; High humidity destruction) was 0.31 and the “Impurity G” value ([2]; High humidity destruction) was 0.04. The “Impurity H” value ([2]; High humidity destruction) was “Undetected”, the “Impurity I” value ([2]; High humidity destruction) was “Undetected” and the Largest unknown impurity ([2]; High humidity destruction) was 0.08. For the same molecule, the “Number of impurities (≥0.05%)” value ([2]; High humidity destruction) was 3, the “Purity of main peak” value ([2]; High humidity destruction) was 99.3% and the Total Impurities ([2]; High humidity destruction) was 0.68%. For the same molecule, the Impurities C + D ([2]; High temperature destruction) was 0.08%, the “Impurity A” value ([2]; High temperature destruction) was 1.76 and the “Impurity B” value ([2]; High temperature destruction) was 0.97. For the same molecule, the “Impurity E” value ([2]; High temperature destruction) was 0.08, the “Impurity F” value ([2]; High temperature destruction) was 0.26 and the “Impurity G” value ([2]; High temperature destruction) was 0.09. For the same molecule, the “Impurity H” value ([2]; High temperature destruction) was 0.02, the “Impurity I” value ([2]; High temperature destruction) was “Undetected” and the Largest unknown impurity ([2]; High temperature destruction) was 2.36. For the same molecule, the “Number of impurities (≥0.05%)” value ([2]; High temperature destruction) was 25, the “Purity of main peak” value ([2]; High temperature destruction) was 92.2% and the Total Impurities ([2]; High temperature destruction) was 7.8%. For the same molecule, the Impurities C + D ([2]; Light exposure destruction) was 0.01%, the “Impurity A” value ([2]; Light exposure destruction) was 1.13 and the “Impurity B” value ([2]; Light exposure destruction) was 0.26. The “Impurity E” value ([2]; Light exposure destruction) was 0.12, the “Impurity F” value ([2]; Light exposure destruction) was 0.22 and the “Impurity G” value ([2]; Light exposure destruction) was 0.03. For the same molecule, the “Impurity H” value ([2]; Light exposure destruction) was 0.38, the “Impurity I” value ([2]; Light exposure destruction) was “Undetected” and the Largest unknown impurity ([2]; Light exposure destruction) was 0.78. The “Number of impurities (≥0.05%)” value ([2]; Light exposure destruction) was 24, the “Purity of main peak” value ([2]; Light exposure destruction) was 93.1% and the Total Impurities ([2]; Light exposure destruction) was 6.9%. The Impurities C + D ([2]; No destruction) was 0.05%, the “Impurity A” value ([2]; No destruction) was 0.12 and the “Impurity B” value ([2]; No destruction) was “Undetected”. For the same molecule, the “Impurity E” value ([2]; No destruction) was “Undetected”, the “Impurity F” value ([2]; No destruction) was 0.31 and the “Impurity G” value ([2]; No destruction) was 0.03. The “Impurity H” value ([2]; No destruction) was “Undetected”, the “Impurity I” value ([2]; No destruction) was “Undetected” and the Largest unknown impurity ([2]; No destruction) was 0.07. The “Number of impurities (≥0.05%)” value ([2]; No destruction) was 3, the “Purity of main peak” value ([2]; No destruction) was 99.4% and the Total Impurities ([2]; No destruction) was 0.6%. For the same molecule, the Impurities C + D ([2]; Oxidative destruction) was 0.18%, the “Impurity A” value ([2]; Oxidative destruction) was 0.36 and the “Impurity B” value ([2]; Oxidative destruction) was 2.77. The “Impurity E” value ([2]; Oxidative destruction) was “Undetected”, the “Impurity F” value ([2]; Oxidative destruction) was 0.26 and the “Impurity G” value ([2]; Oxidative destruction) was 0.20. For the same molecule, the “Impurity H” value ([2]; Oxidative destruction) was “Undetected”, the “Impurity I” value ([2]; Oxidative destruction) was 0.02 and the Largest unknown impurity ([2]; Oxidative destruction) was 2.56. The “Number of impurities (≥0.05%)” value ([2]; Oxidative destruction) was 18, the “Purity of main peak” value ([2]; Oxidative destruction) was 91.6% and 91.8% and the Total Impurities ([2]; Oxidative destruction) was 8.2%.
